# Assay results: publication PMC7567501 (Journal of Enzyme Inhibition and Medicinal Chemistry, 2019)
# Legend:
# SH-SY5Y cells [1] = experiment: Dose-response screening for non-toxic concentrations, MTT reduction assay; format: cell-based, human; settings: 10 µM to 40 µM, 25 h
# Protocol: The neuroprotective effect of these new multi-target drugs designed for AD was evaluated using SH-SY5Y cells treated with Aβ1-42 peptides or ascorbate/iron. For each compound we performed a dose-response curve to select a non-toxic concentration (Figure 7).
# Figure 7. Dose-response screening to select non-toxic concentrations of TAC-BF hybrids. Cells were treated with varying concentration of TAC-BF conjugates (from 10 μM to 40 μM) for 25 h and cell viability was determined using the MTT reduction assay.
# SH-SY5Y human neuroblastoma cell line (ATCC-CRL-2266) is grown in Dulbecco’s modified Eagle’s medium (DMEM), and were obtained from Gibco-Invitrogen (Life Technologies Ltd, UK) with 10% heat inactivated foetal calf serum, containing 50 U/mL penicillin and 50 µg/mL streptomycin, under a humidified atmosphere of 95% air- 5% CO2 at 37 °C. Cells were plated at 0.12 × 10^6 cells/mL for cell viability assay. The tested compounds (18, 19, 20, 21, 23 and 24) were dissolved in DMSO at a concentration of 50 mM and aliquots were stored at −20 °C. We performed a dose-response screening (from 10 µM to 40 µM) in order to choose the highest non-toxic concentration. As a result we selected: 20 µM final concentrations for compounds 18, 19, 20 and 23; 20 µM final concentration for compound 19; 35 µM final concentration for compounds 21 and 24. […] The compounds were added to the cell media 1 h before the incubation with Aβ1-42 or L-ascorbic acid/ferrous sulphate. Aβ1-42 or L-ascorbic acid/ferrous sulphate where incubated alone or with the compound for an additional 24 h. Aβ1-42 was prepared as 276.9 µM stock in sterile water and added to the medium at 2.5 µM final concentration. Ferrous sulphate was freshly prepared as 0.36 M stock in water and added to the medium at 500 µM final concentration. L-Ascorbic Acid was freshly prepared as 80 mM stock in water and added to the medium at 5 mM final concentration. Aβ1-42 was purchased from Bachem (Torrance, CA, USA) and ferrous sulphate and L-ascorbic acid from Sigma Chemical Co (St. Louis, MO, USA).
# Cell viability was determined by the MTT (3–(4,5-dimethylthiazol-2-yl)-2,5-diphenyltetrazolium bromide) reduction test. In viable cells, the enzyme succinate dehydrogenase metabolises MTT into a formazan that absorbs light at 570 nm. Following the cell treatment protocol, the medium was aspirated and 0.5 mL MTT (0.5 mg/mL) was added to each well. The plate was then incubated at 37 °C for 1 h 30 min protected from light. At the end of the incubation period, the formazan precipitates were solubilised with 0.5 mL of acidic isopropanol (0.04 M HCl/isopropanol). The absorbance was measured at 570 nm[51]. Cell reduction ability was expressed as a percentage of untreated control cells.
# SH-SY5Y cells [2] = experiment: Neuroprotection from Aβ42-induced toxicity, MTT reduction assay; format: cell-based, human; settings: Aβ42 2.5 μM 24 h; 1 h pre-incubation + 24 h co-incubation; 18, 19, 20, 23 at 20 µM; 21, 24 at 35 µM
# Protocol: Figure 8. Neuroprotective effect of TAC-BF hybrids from Aβ42-induced toxicity on SH-SY5Y cells. Cells were treated with Aβ42 peptide (2.5 μM) for 24 h in the absence or in the presence of the compounds (1 h pre-incubation + 24 h co-incubation). Evaluation of cell viability was performed using the MTT reduction assay. […] (compounds: 18, 19, 20 and 23 – 20 µM; 21, 24 – 35 µM).
# (§1) SH-SY5Y human neuroblastoma cell line (ATCC-CRL-2266) is grown in Dulbecco’s modified Eagle’s medium (DMEM), and were obtained from Gibco-Invitrogen (Life Technologies Ltd, UK) with 10% heat inactivated foetal calf serum, containing 50 U/mL penicillin and 50 µg/mL streptomycin, under a humidified atmosphere of 95% air- 5% CO2 at 37 °C. Cells were plated at 0.12 × 10^6 cells/mL for cell viability assay. The tested compounds (18, 19, 20, 21, 23 and 24) were dissolved in DMSO at a concentration of 50 mM and aliquots were stored at −20 °C. We performed a dose-response screening (from 10 µM to 40 µM) in order to choose the highest non-toxic concentration. […]
# (§2) Cell viability was determined by the MTT (3–(4,5-dimethylthiazol-2-yl)-2,5-diphenyltetrazolium bromide) reduction test. […] The absorbance was measured at 570 nm[51]. Cell reduction ability was expressed as a percentage of untreated control cells.
# SH-SY5Y cells [3] = experiment: Neuroprotection against ascorbate/iron (Asc/Fe) toxicity, MTT reduction assay; format: cell-based, human; settings: Asc/Fe 5 mM/500 μM 24 h after 1 h compound; 18, 19, 20, 23 at 20 µM; 21, 24 at 35 µM
# Protocol: Figure 9. Neuroprotective effect of TAC-BF conjugates against L-Ascorbic Acid (AscH(-))/Ferrous Sulphate (Fe) toxicity on SH-SY5Y cells. Cells were treated with Asc/Fe (5 mM/500 μM, respectively) for 24 h, after treatment for 1 h in the absence or in the presence of the compounds. Evaluation of cell viability was performed by using MTT reduction assay. […] (compounds: 18, 19, 20 and 23 – 20 µM; 21, 24 – 35 µM).
# as §1, §2
# [4] = Radical scavenging (anti-oxidant) activity, DPPH method; format: physicochemical; settings: DPPH in methanol, 30 min, room temperature
# Protocol: A selection of the newly synthesised hybrids was tested for their radical scavenging activity (anti-oxidant activity, EC50), based on their interaction with the 2,2-diphenyl-1-picrylhydrazyl (DPPH) free radical, as previously described.
# The anti-oxidant capacity or, more precisely, radical scavenging activity based on the electron and proton donation ability, was evaluated by the DPPH method previously described[29]^,[46]. To a 2.5 mL solution of DPPH (0.002%) in methanol, solutions of each compound were added in different volumes to obtain different concentrations in a 3.5 mL final volume. The samples were incubated for 30 min at room temperature. The absorbance was measured at 517 nm against the corresponding blank (methanol). The antioxidant activity was calculated by Eq. (1)^29. (1) %AA = ((ADPPH−Asample)/ADPPH) × 100
# The tests were carried out in triplicate. The compound concentration providing 50% of antioxidant activity (EC50) was obtained by plotting the antioxidant activity against the compound concentration.
structure (smiles),measurement,setting,value
"COc1cccc2cc(C(=O)NCCCNc3c4c(nc5cc(Cl)ccc35)CCCC4)oc12 [Compound 19, N-(3-((6-chloro-1,2,3,4-tetrahydroacridin-9-yl)amino)propyl)-7-methoxybenzofuran-2-carboxamide]",highest non-toxic concentration selected from dose-response screening,SH-SY5Y cells [1],20 µM
same,Neuroprotective effect from Aβ42-induced toxicity (cell viability),SH-SY5Y cells [2],prevented that Aβ-induced cell toxicity
same,Neuroprotective effect against Asc/Fe toxicity (cell viability),SH-SY5Y cells [3],appeared to best achieve cell protection from Asc/Fe-induce oxidative stress
"COc1cccc2cc(C(=O)NCCCCNc3c4c(nc5cc(Cl)ccc35)CCCC4)oc12 [Compound 20, N-(4-((6-chloro-1,2,3,4-tetrahydroacridin-9-yl)amino)butyl)-7-methoxybenzofuran-2-carboxamide]",highest non-toxic concentration selected from dose-response screening,SH-SY5Y cells [1],20 µM
same,EC50,[4],> 1000 µM
"O=C(NCCCNc1c2c(nc3ccccc13)CCCC2)c1cc2cccc(O)c2o1 [Compound 21, 7-Hydroxy-N-(3-((1,2,3,4-tetrahydroacridin-9-yl)amino)propyl)benzofuran-2-carboxamide]",highest non-toxic concentration selected from dose-response screening,SH-SY5Y cells [1],35 µM
same,EC50,[4],480 µM
same,Neuroprotective effect against Asc/Fe toxicity (cell viability),SH-SY5Y cells [3],lowest capacity for in cell radical scavenging
"O=C(NCCCNc1c2c(nc3cc(Cl)ccc13)CCCC2)c1cc2cccc(O)c2o1 [Compound 23, N-(3-((6-chloro-1,2,3,4-tetrahydroacridin-9-yl)amino)propyl)-7-hydroxybenzofuran-2-carboxamide]",highest non-toxic concentration selected from dose-response screening,SH-SY5Y cells [1],20 µM
same,Neuroprotective effect from Aβ42-induced toxicity (cell viability),SH-SY5Y cells [2],prevented that Aβ-induced cell toxicity
"O=C(NCCCCNc1c2c(nc3cc(Cl)ccc13)CCCC2)c1cc2cccc(O)c2o1 [Compound 24, N-(4-((6-chloro-1,2,3,4-tetrahydroacridin-9-yl)amino)butyl)-7-hydroxybenzofuran-2-carboxamide]",highest non-toxic concentration selected from dose-response screening,SH-SY5Y cells [1],35 µM
same,EC50,[4],434 µM
